In patent publication US20240226067A9, “ANTI-FIBROTIC THERAPIES” (THE JOHNS HOPKINS UNIVERSITY, priority 2021, published 2024):

Columns and labels:
[1] = mouse, in vivo, sc, 50 mg/kg
[2] = test system: key fibrosis genes (ACTA2, COL1A1, COL3A1, TGFBR1) in transplanted intestinal tissue; experiment: Subcutaneous intestinal transplant fibrosis model, qPCR of fibrosis genes; assay type: in vivo; details: mouse; one subcutaneous injection 15 mg/kg; one week after implantation; versus oral pirfenidone 100 mg/kg three times daily
Source text: A 1-2 cm segment of bowel was excised from one mouse and implanted in the subcutaneous space on the neck of another mouse of the same genetic background. […] One week after tissue implantation and initiation of treatment, the segment of transplanted intestine tissue was excised to assess expression of key genes involved in fibrosis (α-SMA, ACTA2; collagen type 1, COL1A1; collagen type 3, COL3A1; TGF-β receptor 1, TGFBR1) by qPCR.

[3] = test system: intestinal fibroblast cells; experiment: Cell survival in the microscopy-based screen; details: at effective concentrations
[4] = test system: CCO18CD colon fibroblasts stimulated with TGF-β; experiment: High throughput microscopy-based anti-fibrotic drug screen (α-SMA and collagen 1 expression); assay type: cell-based
Source text: FIG. 1 is images of cells from high throughput microscopy-based analysis of an FDA-approved drug library for potential anti-fibrotic properties.
FIGS. 3A-3C are images of cells from high throughput microscopy-based analysis of potential drugs for anti-fibrotic properties.

| SMILES | mortality [1] | repression of fibrosis genes (ACTA2, COL1A1, COL3A1, TGFBR1) [2] | impact on cell survival [3] | concentration causing reduction in α-SMA and collagen production ([4]; TGF-β stimulated colon fibroblasts) [mM] | concentration level at which induced expression of α-SMA and/or collagen was reduced (in words) ([4]; TGF-β stimulated intestinal fibroblasts) |
| --- | --- | --- | --- | --- | --- |
| Clc1ccc(CSC(Cn2ccnc2)c2ccc(Cl)cc2Cl)cc1 (centres unmarked) [sulconazole, 1-[2-[(4-chlorophenyl)methylsulfanyl]-2-(2,4-dichlorophenyl)ethyl]imidazole] | death of mice | significantly more effective than pirfenidone | minimal impact on cell survival |  |  |
| Cc1ccc(=O)n(-c2ccccc2)c1 [pirfenidone] |  |  |  | 4 | millimolar concentrations |
